Reference: patent US20070031328A1, “Radiolabeled-pegylation of ligands for use as imaging agents” (priority 2005, published 2007)

Experiment: Biodistribution studies in normal mice
Assay type: in vivo, male ICR mice
Settings: tail vein injection, avg of 3 mice ± SD
Method: While under isoflurane anesthesia, 0.15 mL of a saline solution containing the F-18 tracers (10-20 uCi) was injected directly into the lateral tail vein of male ICR mice. The mice (n=3 for each time point) were sacrificed by cervical dislocation at 2, 30, 60 and 120 minutes post-injection. The organs of interest were removed, weighed and assayed for radioactivity content with an automatic gamma counter. The percentage dose per organ was calculated by a comparison of the tissue counts to suitably diluted aliquots of the injected material. Total activities of blood and bone were calculated under the assumption that they were 7% and 14% of the body weight, respectively. The % dose/g of samples was calculated by comparing the sample counts with the count of the diluted initial dose.

| Blood biodistribution (2 min) [% dose/g] | Blood biodistribution (30 min) [% dose/g] | Blood biodistribution (1 hr) [% dose/g] | Blood biodistribution (2 hr) [% dose/g] | Bone biodistribution (2 min) [% dose/g] | Bone biodistribution (30 min) [% dose/g] | Bone biodistribution (1 hr) [% dose/g] | Bone biodistribution (2 hr) [% dose/g] | Brain biodistribution (2 min) [% dose/g] | Brain biodistribution (30 min) [% dose/g] | Brain biodistribution (1 hr) [% dose/g] | Brain biodistribution (2 hr) [% dose/g] | Heart biodistribution (2 min) [% dose/g] | Heart biodistribution (30 min) [% dose/g] | Heart biodistribution (1 hr) [% dose/g] | Heart biodistribution (2 hr) [% dose/g] | Kidney biodistribution (2 min) [% dose/g] | Kidney biodistribution (30 min) [% dose/g] | Kidney biodistribution (1 hr) [% dose/g] | Kidney biodistribution (2 hr) [% dose/g] | SMILES | also measured |
| --- | --- | --- | --- | --- | --- | --- | --- | --- | --- | --- | --- | --- | --- | --- | --- | --- | --- | --- | --- | --- | --- |
| 3.37 ± 0.46 | 3.60 ± 0.13 | 4.55 ± 0.40 | 4.38 ± 0.14 | 1.69 ± 0.21 | 2.28 ± 0.20 | 3.17 ± 0.39 | 6.35 ± 1.32 | 10.27 ± 1.30 | 4.59 ± 0.47 | 3.94 ± 0.04 | 3.86 ± 0.35 | 8.32 ± 0.37 | 3.49 ± 0.27 | 3.81 ± 0.25 | 3.59 ± 0.03 | 13.02 ± 1.04 | 4.54 ± 0.62 | 3.98 ± 0.24 | 3.18 ± 0.16 | CNc1ccc(-c2nc3ccc(OCCOCC[18F])cc3s2)cc1 [[^18F]5a] | Liver biodistribution (2 min): 19.02 ± 1.06 % dose/g; Liver biodistribution (30 min): 7.98 ± 0.60 % dose/g; Liver biodistribution (1 hr): 6.35 ± 0.46 % dose/g; Liver biodistribution (2 hr): 5.05 ± 0.43 % dose/g; Lung biodistribution (2 min): 7.79 ± 0.34 % dose/g; Lung biodistribution (30 min): 3.91 ± 0.28 % dose/g; Lung biodistribution (1 hr): 3.84 ± 0.55 % dose/g; Lung biodistribution (2 hr): 3.63 ± 0.15 % dose/g; Muscle biodistribution (2 min): 0.82 ± 0.12 % dose/g; Muscle biodistribution (30 min): 2.83 ± 0.22 % dose/g; Muscle biodistribution (1 hr): 2.76 ± 0.17 % dose/g; Muscle biodistribution (2 hr): 2.36 ± 0.11 % dose/g; Skin biodistribution (2 min): 1.08 ± 0.22 % dose/g; Skin biodistribution (30 min): 3.14 ± 0.22 % dose/g; Skin biodistribution (1 hr): 3.15 ± 0.28 % dose/g; Skin biodistribution (2 hr): 2.62 ± 0.16 % dose/g; Spleen biodistribution (2 min): 6.92 ± 0.79 % dose/g; Spleen biodistribution (30 min): 3.93 ± 0.29 % dose/g; Spleen biodistribution (1 hr): 3.87 ± 0.61 % dose/g; Spleen biodistribution (2 hr): 3.32 ± 0.16 % dose/g |
| 6.29 ± 1.19 | 3.41 ± 0.07 | 3.91 ± 0.23 | 4.04 ± 0.45 | 2.13 ± 0.16 | 1.48 ± 0.03 | 1.82 ± 0.04 | 2.41 ± 0.28 | 5.53 ± 0.56 | 2.33 ± 0.15 | 2.18 ± 0.09 | 1.96 ± 0.13 | 6.26 ± 1.12 | 3.22 ± 0.33 | 3.06 ± 0.15 | 2.50 ± 0.09 | 9.02 ± 0.77 | 5.27 ± 0.77 | 3.97 ± 0.25 | 2.97 ± 0.07 | CNc1ccc(-c2nc3ccc(OCCOCCOCC[18F])cc3s2)cc1 [[^18F]5b] | Liver biodistribution (2 min): 21.84 ± 1.56 % dose/g; Liver biodistribution (30 min): 13.75 ± 1.88 % dose/g; Liver biodistribution (1 hr): 11.22 ± 0.82 % dose/g; Liver biodistribution (2 hr): 9.13 ± 1.11 % dose/g; Lung biodistribution (2 min): 7.35 ± 1.50 % dose/g; Lung biodistribution (30 min): 3.94 ± 0.29 % dose/g; Lung biodistribution (1 hr): 3.63 ± 0.25 % dose/g; Lung biodistribution (2 hr): 3.24 ± 0.10 % dose/g; Muscle biodistribution (2 min): 1.40 ± 0.11 % dose/g; Muscle biodistribution (30 min): 1.92 ± 0.34 % dose/g; Muscle biodistribution (1 hr): 1.58 ± 0.13 % dose/g; Muscle biodistribution (2 hr): 1.38 ± 0.11 % dose/g; Skin biodistribution (2 min): 2.09 ± 0.22 % dose/g; Skin biodistribution (30 min): 2.27 ± 0.17 % dose/g; Skin biodistribution (1 hr): 1.92 ± 0.13 % dose/g; Skin biodistribution (2 hr): 1.57 ± 0.06 % dose/g; Spleen biodistribution (2 min): 5.24 ± 0.67 % dose/g; Spleen biodistribution (30 min): 2.66 ± 0.14 % dose/g; Spleen biodistribution (1 hr): 2.84 ± 0.13 % dose/g; Spleen biodistribution (2 hr): 2.46 ± 0.05 % dose/g |
| 3.54 ± 0.12 | 2.52 ± 0.29 | 2.46 ± 0.29 | 1.54 ± 0.19 | 1.68 ± 0.60 | 1.20 ± 0.29 | 1.68 ± 0.17 | 2.31 ± 0.37 | 2.57 ± 0.12 | 1.69 ± 0.23 | 1.80 ± 0.25 | 1.29 ± 0.17 | 9.37 ± 0.18 | 2.11 ± 0.27 | 1.82 ± 0.28 | 1.19 ± 0.15 | 23.00 ± 0.89 | 5.01 ± 0.84 | 3.50 ± 0.86 | 1.27 ± 0.08 | CNc1ccc(-c2nc3ccc(OCCOCCOCCOCCOCCOCC[18F])cc3s2)cc1 [[^18F]5c] | Liver biodistribution (2 min): 12.43 ± 1.11 % dose/g; Liver biodistribution (30 min): 3.94 ± 0.29 % dose/g; Liver biodistribution (1 hr): 2.86 ± 0.38 % dose/g; Liver biodistribution (2 hr): 1.67 ± 0.32 % dose/g; Lung biodistribution (2 min): 4.68 ± 0.27 % dose/g; Lung biodistribution (30 min): 2.41 ± 0.37 % dose/g; Lung biodistribution (1 hr): 2.08 ± 0.32 % dose/g; Lung biodistribution (2 hr): 1.24 ± 0.16 % dose/g; Muscle biodistribution (2 min): 1.60 ± 0.98 % dose/g; Muscle biodistribution (30 min): 1.87 ± 0.38 % dose/g; Muscle biodistribution (1 hr): 1.52 ± 0.24 % dose/g; Muscle biodistribution (2 hr): 0.93 ± 0.07 % dose/g; Skin biodistribution (2 min): 0.95 ± 0.12 % dose/g; Skin biodistribution (30 min): 2.14 ± 1.03 % dose/g; Skin biodistribution (1 hr): 1.42 ± 0.14 % dose/g; Skin biodistribution (2 hr): 0.91 ± 0.10 % dose/g; Spleen biodistribution (2 min): 4.74 ± 0.23 % dose/g; Spleen biodistribution (30 min): 2.05 ± 0.18 % dose/g; Spleen biodistribution (1 hr): 1.87 ± 0.26 % dose/g; Spleen biodistribution (2 hr): 1.13 ± 0.16 % dose/g |
